Entries after “also recorded” stand apart in the source; their conditions may differ.
How the values were obtained:
[1] = test system: rats; experiment: Loss of righting reflex in rats after IV bolus; type: in vivo, Sprague-Dawley rats; conditions: for anesthetic toxicity in rats: highest doses; for slope of duration of anesthesia versus logarithm of anesthetic dose: time to spontaneous righting; for onset time for LORR / onset time for LORR, range: IV, equihypnotic doses 4×ED50 (28 mg/kg carboetomidate, 4 mg/kg etomidate); for time to LORR after IV bolus (in words): doses sufficient to produce LORR
Protocol: Rats: Rats were briefly restrained in a 3-inch diameter, 9-inch long acrylic chamber with a tail exit port. The desired dose of carboetomidate in dimethyl sulfoxide (DMSO; typically at 40 mg/ml) was injected through a lateral tail vein catheter followed by an approximately 1-ml normal saline flush. After injection, rats were removed from the restraint device and turned supine. […] A stopwatch was used to measure the duration of LORR, which was defined as the time from carboetomidate injection until the animal spontaneously righted itself. The ED50 for LORR on bolus administration was determined from the dose dependence of LORR using the method of Waud.26 Onset time for LORR was determined separately by injecting rats with 28 mg/kg of carboetomidate (40 mg/ml in DMSO) or 4 mg/kg of etomidate (5.7 mg/ml in DMSO) through a lateral tail vein catheter followed by an approximately 1-ml normal saline flush. After injection, rats were immediately removed from the restraint device and repeatedly turned supine until they no longer spontaneously righted. The onset time was defined as the time from injection until LORR occurred.
Etomidate or carboetomidate was administered to Sprague Dawley rats as an IV bolus into their tail veins. […] LORR was defined as the time from drug injection until the animal spontaneously righted itself. The ED50 for LORR upon bolus anesthetic administration was determined from the anesthetic dose-dependence of LORR.

[2] = test system: rats; experiment: Rat hemodynamics (mean blood pressure); conditions: IV; for effect on mean blood pressure relative to DMSO vehicle (FIG. 7B): 14 mg/kg carboetomidate, 2 mg/kg etomidate (2×ED50); for effect on mean blood pressure, comparison of three anesthetics (FIG. 7A): twice ED50 for LORR (8 mg/kg propofol, 2 mg/kg etomidate, 14 mg/kg carboetomidate)
Protocol: Femoral arterial catheters, tunneled between the scapulas, were preimplanted by the vendor (Charles River Laboratories). Animals were fully recovered from the placement procedure on arrival.
On the day of study, after weighing and lateral tail vein IV catheter placement, rats were restrained in the acrylic tube with a tail exit port and allowed to acclimate for approximately 10 to 20 min before data collection. […] All data were acquired and analyzed using LabView Software (version 8.5 for Macintosh OS X; National Instruments).
Carboetomidate (40 mg/ml) dissolved in DMSO, etomidate (5.7 mg/ml) dissolved in DMSO, or DMSO vehicle alone as a control was administered through the tail vein catheter followed by approximately 1-ml normal saline flush.
The average mean blood pressure was calculated at each 30-second epoch during this study period.

[3] = test system: Xenopus laevis tadpoles; conditions: literature (Husain et al. 2003); cited from earlier work
[4] = target: T1, human α1β2γ2L GABAA receptors (Homo sapiens, UniProt P14867+P47870); conditions: 4 μM etomidate, inventors' previous study; cited from earlier work
T1 construct: expressed in transfected cells; host or cells: Xenopus laevis oocytes injected with mRNA (subunit ratio 1:1:2)
T1 sequence (P47870 25-512 limits assumed): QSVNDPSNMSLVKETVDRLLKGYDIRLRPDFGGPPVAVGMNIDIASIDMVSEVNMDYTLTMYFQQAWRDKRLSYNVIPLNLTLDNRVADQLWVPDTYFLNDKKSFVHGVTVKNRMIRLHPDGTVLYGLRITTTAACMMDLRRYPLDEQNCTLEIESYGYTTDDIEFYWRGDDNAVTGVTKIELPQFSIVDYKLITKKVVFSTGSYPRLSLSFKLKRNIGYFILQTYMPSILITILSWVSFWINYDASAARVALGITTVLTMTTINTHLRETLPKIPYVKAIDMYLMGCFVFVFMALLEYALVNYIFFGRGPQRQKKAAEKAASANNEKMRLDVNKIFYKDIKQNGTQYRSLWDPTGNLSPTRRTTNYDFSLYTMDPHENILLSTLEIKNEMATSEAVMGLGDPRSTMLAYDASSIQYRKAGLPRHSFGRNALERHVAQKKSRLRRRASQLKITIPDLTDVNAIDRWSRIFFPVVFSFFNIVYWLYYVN
T1 sequence (P14867 28-456): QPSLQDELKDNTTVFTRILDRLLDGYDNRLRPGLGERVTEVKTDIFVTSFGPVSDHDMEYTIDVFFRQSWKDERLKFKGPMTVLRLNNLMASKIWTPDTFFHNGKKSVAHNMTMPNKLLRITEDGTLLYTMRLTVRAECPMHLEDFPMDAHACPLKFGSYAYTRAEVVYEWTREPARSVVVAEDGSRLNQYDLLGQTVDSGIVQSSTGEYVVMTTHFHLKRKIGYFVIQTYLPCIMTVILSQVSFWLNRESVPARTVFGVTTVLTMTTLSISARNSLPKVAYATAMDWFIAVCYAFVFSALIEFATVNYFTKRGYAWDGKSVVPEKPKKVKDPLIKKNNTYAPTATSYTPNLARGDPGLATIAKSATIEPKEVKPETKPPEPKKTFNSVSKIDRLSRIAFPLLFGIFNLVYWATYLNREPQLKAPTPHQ
T1 sequence (P18507 40-475 partner): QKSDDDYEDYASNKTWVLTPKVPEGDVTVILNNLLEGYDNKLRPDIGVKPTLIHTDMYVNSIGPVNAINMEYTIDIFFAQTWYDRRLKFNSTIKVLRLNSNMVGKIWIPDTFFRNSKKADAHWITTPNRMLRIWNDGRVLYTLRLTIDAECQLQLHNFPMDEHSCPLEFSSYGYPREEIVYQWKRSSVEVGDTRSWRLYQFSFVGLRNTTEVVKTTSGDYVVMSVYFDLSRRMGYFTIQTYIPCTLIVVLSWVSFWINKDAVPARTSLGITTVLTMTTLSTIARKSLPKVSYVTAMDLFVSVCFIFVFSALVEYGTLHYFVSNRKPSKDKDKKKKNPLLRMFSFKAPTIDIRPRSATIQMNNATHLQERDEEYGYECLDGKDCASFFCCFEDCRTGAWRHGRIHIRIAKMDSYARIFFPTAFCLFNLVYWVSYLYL

[5] = test system: humans; conditions: literature (Arden et al. 1986); cited from earlier work
[6] = test system: critically ill trauma patients; conditions: critically ill trauma patients sedated with etomidate vs. benzodiazepines (28%); Watt and Ledingham 1984; cited from earlier work
[7] = test system: rats; experiment: Rat adrenocortical suppression (ACTH1-24-stimulated serum corticosterone); conditions: IV bolus 2×ED50 (14 mg/kg carboetomidate, 2 mg/kg etomidate), 15 min after ACTH1-24
Protocol: Immediately after weighing and IV catheter placement, dexamethasone (0.2 mg/kg IV; American Regent, Shirley, N.Y.) was administered to each rat to inhibit endogenous adrenocorticotropic hormone (ACTH) release, to suppress baseline corticosterone production, and to inhibit the variable stress response to restraint and handling. […] The concentrations of carboetomidate and etomidate in DMSO were 40 and 5.7 mg/ml, respectively. Immediately after hypnotic or vehicle administration, ACTH1-24 (25 μg/kg; Sigma-Aldrich Chemical Co, St. Louis, Mo.) was given intravenously to stimulate corticosterone production. Fifteen minutes later, a second blood sample was drawn to measure the ACTH1-24-stimulated serum corticosterone concentration. ACTH1-24 was dissolved in 1 mg/ml of deoxygenated water as stock, aliquoted, and frozen (−20° C.); a fresh aliquot was thawed just before each use. Rats in all three groups (carboetomidate, etomidate, and vehicle) received the same volume of DMSO (350 μl/kg).
Blood samples were allowed to clot at room temperature (10-60 min) before centrifugation at 3,500 g for 5 min. Serum was carefully expressed from any resulting superficial fibrin clot using a clean pipette tip before a second centrifugation at 3,500 g for 5 min. After the second centrifugation, the resultant clot-free serum layer was transferred to a fresh vial for a final, high-speed centrifugation (16,000 g, for 5 min) to pellet any contaminating red blood cells or particulates. The serum was transferred to a clean vial and promptly frozen (−20° C.) pending corticosterone measurement. After thawing and heat inactivation of corticosterone-binding globulins (65° C. for 20 min), serum baseline and ACTH1-24-stimulated corticosterone concentrations were quantified using an enzyme-linked immunosorbent assay (Diagnostic Systems Laboratories, Webster, Tex.) and a 96-well plate reader (Molecular Devices, Sunnyvale, Calif.).
Male Sprague Dawley rats were pre-treated with dexamethasone to inhibit endogenous ACTH production and minimize baseline serum corticosterone concentrations. […]

[8] = test system: Xenopus laevis tadpoles; experiment: Tadpole loss of righting reflex (LORR) assay; type: in vivo
Protocol: Tadpoles: Groups of five early prelimb-bud stage Xenopus laevis tadpoles were placed in 100 ml of oxygenated water buffered with 2.5 mM Tris HCl buffer (pH. 7.4) and containing a concentration of carboetomidate ranging from 1 to 40[…]. Tadpoles were tipped manually every 5 min with a flame-polished pipette until the response stabilized. […] At the end of each study, tadpoles were returned to fresh water to ensure reversibility of hypnotic action. The EC50 for LORR was determined from the carboetomidate concentration dependence of LORR using the method of Waud D R, J Pharmacol Exp Ther (1972) 183: 577-607, content of which is herein incorporated by reference.
Tadpoles: The tadpole loss of righting reflex assay was used to test for anesthetic activity. Groups of 5 early prelimb-bud stage Xenopus laevis tadpoles were placed in 100 ml of oxygenated water buffered with 2.5 mM Tris HCl buffer (pH=7) and containing a concentration of carboetomidate ranging from 1-40 μM. See Scheme 1, above, for structure of Carboetomidate. Tadpoles were tipped manually every 5 min with a flame polished pipette. […] At all concentrations, this loss of righting reflex response stabilized within 30 min of carboetomidate exposure. At the end of each study, tadpoles were returned to fresh water to ensure reversibility of hypnotic action.

[9] = target: T1, human α1β2γ2L GABAA receptors; experiment: GABAA receptor electrophysiology, wild-type receptors in Xenopus oocytes (two-electrode voltage clamp); type: cell-based; conditions: 10 μM compound
Protocol: Adult female Xenopus laevis frogs were anesthetized with 0.2% tricaine (ethyl-m-aminobenzoate) and hypothermia. Ovary lobes were then excised through a small laparotomy incision and placed in OR-2 solution (82 mM NaCl, 2 mM KCl, 2 mM MgCl2, 5 mM HEPES, pH 7.5) containing collagenase 1A (1 mg/ml) for 3 h to separate oocytes from connective tissue.
Stage 4 and 5 oocytes were injected with messenger RNA encoding the α1, β2 (or β2M286W), and […] subunits of the human GABAA receptor (˜40 ng of messenger RNA total at a subunit ratio of 1:1:2). […]
All electrophysiologic recordings were performed using the whole cell two-electrode voltage-clamp technique. […] Current responses were recorded using Clampex 9.2 software (Axon Instruments) and processed using a Bessel (8-pole) low-pass filter with a cutoff at 50 Hz using Clampfit 9.2 software (Axon Instruments).
For each oocyte, the concentration of GABA that produces 5-10% of the maximal current response (EC5-10 GABA) was determined by measuring the peak current responses evoked by a range of GABA concentrations (in ND-96 buffer) and comparing them with the maximal peak current response evoked by 1 mM GABA. The effect of carboetomidate on EC5-10 GABA-evoked currents was then assessed by first perfusing the oocyte with EC5-10 GABA for 90 s and then measuring the control peak evoked current. […]

[10] = target: T2, etomidate-insensitive mutant α1β2M286Wγ2L GABAA receptors (Homo sapiens, UniProt P14867+P47870, M310W); experiment: GABAA receptor electrophysiology, etomidate-insensitive mutant receptors in Xenopus oocytes; type: cell-based; conditions: 10 μM compound
T2 construct: expressed in transfected cells; host or cells: Xenopus laevis oocytes injected with mRNA (subunit ratio 1:1:2)
T2 sequence (P47870 26-512 M310W): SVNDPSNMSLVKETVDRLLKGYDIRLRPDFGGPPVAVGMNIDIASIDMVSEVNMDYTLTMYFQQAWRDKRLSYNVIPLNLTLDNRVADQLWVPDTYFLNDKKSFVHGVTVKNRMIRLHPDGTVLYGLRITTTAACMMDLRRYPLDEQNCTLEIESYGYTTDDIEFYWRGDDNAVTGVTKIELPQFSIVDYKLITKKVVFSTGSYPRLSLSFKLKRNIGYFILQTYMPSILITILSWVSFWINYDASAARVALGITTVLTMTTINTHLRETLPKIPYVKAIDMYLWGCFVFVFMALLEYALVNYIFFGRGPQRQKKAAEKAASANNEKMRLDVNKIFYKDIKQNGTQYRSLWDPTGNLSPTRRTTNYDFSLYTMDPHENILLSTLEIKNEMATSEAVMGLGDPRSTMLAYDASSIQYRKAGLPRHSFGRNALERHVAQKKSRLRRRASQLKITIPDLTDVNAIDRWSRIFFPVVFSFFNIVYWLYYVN
T2 sequence (P14867 28-456): as the sequence (P14867 28-456) above
T2 sequence (P18507 40-475 partner): as the sequence (P18507 40-475 partner) above
Protocol: Stage 4 and 5 oocytes were injected with messenger RNA encoding the α1, β2 (or β2M286W), and γ21 subunits of the human GABAA receptor (˜40 ng of messenger RNA total at a subunit ratio of 1:1:2). This messenger RNA was transcribed from complementary DNA encoding for GABAA receptor α1, β2 (or β2M286W), and γ21 subunits using the mMESSAGE mMACHINE High Yield Capped RNA Transcription Kit (Ambion, Austin, Tex.). Injected oocytes were incubated in ND-96 buffer solution (96 mM NaCl, 2 mM KCl, 1 mM CaCl2, 0.8 mM MgCl2, 10 mM HEPES, pH 7.5) containing 50 U/ml of penicillin and 50 μg/ml of streptomycin at 17° C. for at least 18 h before electrophysiologic experiments.
For each oocyte, the concentration of GABA that produces 5-10% of the maximal current response (EC5-10 GABA) was determined by measuring the peak current responses evoked by a range of GABA concentrations (in ND-96 buffer) and comparing them with the maximal peak current response evoked by 1 mM GABA. […]

| Molecule | anesthetic toxicity in rats ([1]; IV bolus) | slope of duration of anesthesia versus logarithm of anesthetic dose ([1]; rats, IV bolus) | onset time for LORR ([1]; rats) [s] | onset time for LORR, range ([1]; rats) [s] | time to LORR after IV bolus (in words) ([1]; rats) | effect on mean blood pressure relative to DMSO vehicle (FIG. 7B) [2] | effect on mean blood pressure, comparison of three anesthetics (FIG. 7A) [2] | ACTH1-24-stimulated serum corticosterone concentration versus vehicle (in words) [7] | other results |
| --- | --- | --- | --- | --- | --- | --- | --- | --- | --- |
| CCOC(=O)c1cncn1C(C)c1ccccc1 (stereo not shown) [etomidate, ethyl 3-(1-phenylethyl)imidazole-4-carboxylate] | no obvious anesthetic toxicity | 27±7 | 4.5 ± 0.6 | 4 to 5 | within several seconds | significantly reduced mean blood pressure relative to vehicle | magnitude of this decrease was less | significantly reduced | ED50 ([1]; Rattus norvegicus, rats, IV bolus, read-out: ED50 for LORR following bolus administration): 1 ± 0.03 mg/kg; concentration inducing loss of righting reflex in tadpoles [3]: ~2 µM; magnitude of potentiation of GABAA receptor currents [4]: 660±240%; concentration inducing loss of responsiveness in humans [5]: ~2 µM; mortality [6]: 77% |
| CC(C)c1cccc(C(C)C)c1O [propofol, reference compound] |  |  |  |  |  |  | mean blood pressure decreased |  |  |
| (R)-1-(1-phenylethyl)-1H-pyrrole-2-carboxylate [carboetomidate] | no obvious anesthetic toxicity | 16±4 | 33 ± 22 | 10 to 63 | within several seconds | not significantly greater than that of DMSO vehicle alone | magnitude of this decrease was less; also recorded: depresses blood pressure significantly less than propofol or etomidate | not different from those that had received only vehicle; also recorded: relatively unchanged versus vehicle | toxicity in tadpoles ([8]; 1-40 μM, recovery in fresh water): No evidence of toxicity was observed; EC50 ([8]; LORR, Xenopus laevis tadpoles, quantal method of Waud, read-out: anesthetic EC50 (concentration at which 50% of tadpoles were anesthetized)): 5.4 ± 0.5 µM; time for LORR response to stabilize ([8]; all concentrations (1-40 μM)): ≤ 30 min; fraction of tadpoles anesthetized ([8]; highest concentrations, 10-40 μM): all tadpoles were anesthetized; ED50 for LORR following bolus administration ([1]; rats, IV bolus): 7 ± 2 mg/kg; enhancement of amplitudes of GABA-evoked currents ([9]; 3 μM GABA, wild-type): 4 fold; enhancement (potentiation) of currents mediated by wild-type receptors ([9]; EC5-10 GABA): 390±80%; effect on amplitude of GABA-evoked currents ([10]; 0.3 μM GABA, mutant M286W): little effect; enhancement of currents mediated by etomidate-insensitive mutant receptors ([10]; EC5-10 GABA): −9±16% |
